# According to US8211445B2, “PSM peptides as vaccine targets against methicillin-resistant Staphylococcus” (The United States of America, as represented by the …, priority 2007, dated 2012):
# Legend:
# Type in all cases: cell-based
# human neutrophils [1] = assay: Interaction of synthetic PSMs with human neutrophils (overall pro-inflammatory activity); conditions: synthetic PSM peptides, comparison among PSMs
# Method: Neutrophils were subjected to a brief hypotonic shock with pyrogen-free water (Sigma), washed, and suspended at 5×10^6 cells/ml in HBSS containing 0.05% human serum albumin (HSA; CLB). Chemotaxis of neutrophils was determined by using fluorescently-labeled neutrophils that migrated through a membrane fitted into an insert of a 24-well microtiter plate transwell system (Costar) containing a prewetted 3-μm-pore-size polycarbonate filter as described (de Haas et al., J Exp Med 199, 687-95, 2004). […] Calcium fluxes were analyzed with a FACScalibur (Becton Dickinson).
# Priming of PMNs by synthetic PSMs was determined by increased surface expression of CD11b and gp91phox (granule exocytosis). […] PMNs were analyzed on a FACSCalibur flow cytometer (Becton Dickinson) and dead cells were excluded with a single gate. Percent positive neutrophils were determined with a marker defined by the boundary of the isotype-matched control antibody.
# After isolation and washing, PMN or PBMC were resuspended in RPMI 1640 medium (Sigma) supplemented with 10% human serum, 2 mM L-glutamine, 100 U/ml penicillin, 100 μg/ml streptomycin, 2 mM sodium pyruvate, and 10 mM HEPES. […] After removal of supernatant, cells were resuspended in fresh culture medium, counted, and distributed into a 96-well cell culture plate at 100 μl and 2.5×10^5 cells per well. […]
# human neutrophils [2] = assay: Priming of human neutrophils (surface expression of CD11b and gp91phox); conditions: PSM-mec vs PSMα3; in the range of other α-type PSMs and δ-toxin, higher than β-type PSMs
# Method: (§1) Priming of PMNs by synthetic PSMs was determined by increased surface expression of CD11b and gp91phox (granule exocytosis). PMNs were incubated with 10-10,000 ng/ml PSM, 10 μM fMLP, 10 ng/ml lipopolysaccharide, or 10 μg/ml lipoteichoic acid in 96-well tissue culture plates at 37° C. with rotation for 60 minutes. The assay was terminated by centrifuging cells at 4° C. for 8 minutes at 350×g. Cells were washed twice in cold Dulbecco's phosphate-buffered saline and stained with and isotype control antibody (BD Biosciences) or those specific for CD11b (mAb 44, BD Biosciences) or gp91phox (mAb 7D533). Propidium iodide (0.5 μg/ml) was used to identify dead cells. PMNs were analyzed on a FACSCalibur flow cytometer (Becton Dickinson) and dead cells were excluded with a single gate. Percent positive neutrophils were determined with a marker defined by the boundary of the isotype-matched control antibody.
# as §1, with “10-10000” for “10-10,000”, “7D5).” for “7D533).”
# Human neutrophil assays: Human neutrophil isolation, chemotaxis, calcium ion flux, priming, lysis assays, and measurement of IL-8 production were performed as described in Example 2.
# human neutrophils [3] = assay: Scanning electron microscopy of neutrophils exposed to PSMα3; conditions: PSMα3 10 μg/ml
# Method: FIG. 4 includes several panels showing PSM-induced lysis of human neutrophils. FIG. 4A is a graph showing human neutrophil lysis, measured by release of lactate dehydrogenase (LDH) activity, with synthetic PSM peptides at 10 μg/ml. FIG. 4B is a graph showing human neutrophil lysis, measured by release of LDH activity, with culture filtrates of wild-type, PSM gene deletion and complemented CA- and HA-MRSA strains. Data represent means±SEM of at least three independent measurements. FIG. 4C is a series of digital images showing in vitro lysis of human neutrophils with synthetic PSMα3. Neutrophils were incubated with PSMα3 (10 μg/ml) and observed by scanning electron microscopy at the time intervals indicated, in comparison to untreated controls. […] The peak at ˜190 nm is indicative of α-helicity. […] FIG. 4F is a pair of graphs showing the infiltration and killing of […] leukocytes in a murine peritonitis model. Two hours after infection with the bacteria, neutrophils and monocytes were counted in peritoneal exudates, and dead and live cells were distinguished, using flow cytometry. The number of mice was n=5 for all samples except n=4 for MW2 samples (the results from one mouse in the MW2 wild-type and PSMα deletion strain samples were not included because of extensive bleeding). […]
substance,measurement,setting,value
fMEFVAKLFKFFKDLLGKFLGNN [PSMα3],pro-inflammatory activity,human neutrophils [1],most pronounced pro-inflammatory activity
same,capacity to activate human neutrophils (surface exposure of gp91phox and CD11b),human neutrophils [2],most potent
same,state of neutrophils after 60 minutes,human neutrophils [3],many neutrophils were completely destroyed
same,time of exposure until signs of priming and compromised integrity of the plasma membrane,human neutrophils [3],≤ 5 min
